Type in all cases: cell-based
Settings in all cases: 18 hr at 30° C.

Assay [1] deals with various opportunistic bacterial pathogens. Description: in vitro bacterial pathogen screen, zone of inhibition (DIFCO BACTROL Disk Set). The text has this:
The ability of Bacillus coagulans to inhibit various opportunistic bacterial pathogens was quantitatively ascertained by use of an in vitro assay. This assay is part of a standardized bacterial pathogen screen (developed by the U.S. Food and Drug Administration (FDA)) and is commercially available on solid support disks (DIFCO® BACTROL® Disk Set). To perform the assay, potato-dextrose plates (DIFCO®) were initially prepared using standard procedures. The plates were then individually inoculated with each of the bacteria (approximately 1.5×10^6 CFU) to be tested, so as to form a confluent bacterial bed.
Inhibition by Bacillus coagulans was subsequently ascertained by placing approximately 1.5×10^6 CFU of Bacillus coagulans in 10 μl of broth or buffer, directly in the center of the potato-dextrose plate, with one test locus being approximately 8 mm in diameter per plate. A minimum of three test loci were used for each assay. The negative control consisted of a 10 μl volume of a sterile saline solution, whereas the positive control consisted of a 10 μl volume of glutaraldehyde. The plates were then incubated for approximately about 18 hr at 30° C., at which time the zones of inhibition were measured. […]

A further assay has as its system four species of Candida. Description: in vitro zone of inhibition assay on potato-dextrose plates, Candida. As to the method: Each of the yeast pathogens and their ATCC accession numbers are illustrated in FIG. 4.
In the in vitro inhibition assay, potato-dextrose plates (DIFCO®, Detroit, Mich.) were prepared using standard procedures and were inoculated individually with a confluent bed about 1.7×10^6 of the four species of Candida. Inhibition by Bacillus coagulans was tested by placing on the plate about 1.5×10^6 colony forming units (CFU) in 10 μl of broth or buffer, plated directly in the center of the potato-dextrose plate with one test locus of about 8 mm in diameter per plate. A minimum of three tests were performed for each inhibition assay. The negative control consisted of a 10 μl volume of a sterile saline solution, whereas the positive control consisted of a 1 μl volume of Miconazole cream.
The plates were then incubated for approximately 18 hr at 30° C., at which time the zones of inhibition were measured. As designated herein, “excellent inhibition” means the zone was 10 mm or greater in diameter; and “good inhibition” means the zone was greater than 2 mm in diameter, but less than 10 mm in diameter.

In assay [2] the test system is various species of the fungus Trichophyton. Description: in vitro zone of inhibition assay on potato-dextrose plates, Trichophyton. On the procedure:
In the assay, potato-dextrose plates (DIFCO®, Detroit, Mich.) were prepared using standard procedures and were inoculated individually with a confluent bed (about 1.7×10^6) of various species of the fungus Trichophyton. The tested fungal strains of Trichophyton species (available from the American Type Culture Collection (ATCC; 10801 University Boulevard, Manassas, Va. 20110-2209)) and their ATCC accession numbers, as well as the results of in vitro inhibition by Bacillus coagulans are illustrated in FIG. 3.
Inhibition by Bacillus coagulans was ascertained by placing on the plate approximately 1.5×10^6 colony forming units (CFU) in 10 μl of broth or buffer, plated directly in the center of the potato-dextrose plate, with one test locus per plate. The size of each test locus was approximately 8 mm in diameter and a minimum of three tests were performed for each inhibition assay. The negative control consisted of a […] volume of sterile saline solution, whereas the positive control consisted of a […] volume 2% Miconazole (1-[2-(2,4-dichlorophenyl)-2-[(2,4-dichlorophenyl)methoxy]methyl-[…] within an inert cream.
The plates were then incubated for approximately 18 hr at 30° C., at which time the zones of inhibition were measured. […]

Consider `O=CCCCC=O` [glutaraldehyde], for which, in assay [1] (10 μl volume of glutaraldehyde, average of three tests), the “zone of inhibition diameter” value is “approximately 16.2 mm”. Also, the “inhibition grade (zone of inhibition)” value in assay [1] is “excellent”.

On to `Clc1ccc(COC(Cn2ccnc2)c2ccc(Cl)cc2Cl)c(Cl)c1` (stereo not drawn) [positive control], for which the “zone of inhibition diameter” value with four species of Candida (1 μl volume of Miconazole cream, average of three tests) was “approximately 8.7 mm”; in assay [2] (10 ml volume 2% Miconazole in inert cream, mean average of three tests), “approximately 8.5 mm”. The “inhibition grade (zone of inhibition)” value is “good inhibition (the zone was greater than 2 mm in diameter, but less than 10 mm in diameter)” in the assay on four species of Candida and “good inhibition (the zone was greater than 2 mm in diameter, but less than 10 mm in diameter)” in assay [2].

For the origin of these results see patent US7807185B2, “Methods of inhibiting growth of bacteria, yeast, fungus, and virus with Pseudomonas lindbergii and Bacillus coagulans extracellular products” (Ganeden Biotech, Incorporated, priority 1997, dated 2010).
